Assay [1] addresses T1, SARS-CoV-2 main protease (M^pro) (Severe acute respiratory syndrome coronavirus 2, UniProt P0DTD1). Kind of assay: Rapid-Fire MS Biochemical Assay measuring Mpro activity (5 nM Mpro). The conditions noted are these: Mpro inhibition, 5 μM substrate peptide, 120 min.
In assay [2] the target is T1, SARS-CoV-2 main protease (M^pro). In words: Rapid-Fire MS Biochemical Assay measuring Mpro activity (12.5 nM Mpro). The conditions noted are these: Table 1A, Mpro inhibition, 5 μM substrate peptide, 30 min.
Where [3] appears, read: Table 1B, read-out: Rapid-Fire Assay IC50.

Here are results for 46 compounds from patent publication US20250092016A1, “COMPOUNDS AND COMPOSITIONS FOR THE TREATMENT OF CORONAVIRAL RELATED DISEASES” (priority 2021, published 2025).

What is called IC50 is the point on the concentration scale where inhibition reaches its midpoint. Regarding `N#CC1CN(c2ccc(Cl)cn2)C(=O)N1c1cncc2ccccc12` (racemic) [Compound 10, 1-(5-chloropyridin-2-yl)-3-(isoquinolin-4-yl)-2-oxoimidazolidine-4-carbonitrile], the IC50 in assay [1] (setting [3]) is less than 20 nM; in assay [2], 5 nM.

As for `N#CC1CN(c2ccc(F)cc2)C(=O)N1c1cncc2ccccc12` (racemic) [Compound 6, 1-(4-fluorophenyl)-3-(isoquinolin-4-yl)-2-oxoimidazolidine-4-carbonitrile], the IC50 in assay [1] (setting [3]) is 20 to 200 nM; in assay [2] it was 27 nM.

`N#C[C@@H]1CN(c2ccccc2)C(=O)N1c1cncc2ccccc12` (single isomer, unassigned) [Compound 1b]: the IC50 was greater than 1000 nM in assay [1] (setting [3]) and 6400 nM in assay [2].

Regarding `N#C[C@H]1CN(c2ccccc2)C(=O)N1c1cncc2ccccc12` (single isomer, unassigned) [Compound 1a], the IC50 in assay [1] (setting [3]) was less than 20 nM; in assay [2], 9 nM.

As for `N#CC1CN(c2ccccc2)C(=O)N1c1cncc2ccccc12` (racemic) [Compound 1, 3-(isoquinolin-4-yl)-2-oxo-1-phenylimidazolidine-4-carbonitrile], the IC50 in assay [1] (setting [3]) was 20 to 200 nM; in assay [2] it was 37 nM.

On to `N#CC1CN(c2ccc(Cl)cc2)C(=O)N1c1cncc2ccccc12` (centres unmarked) [Compound 5, 1-(4-chlorophenyl)-3-(isoquinolin-4-yl)-2-oxoimidazolidine-4-carbonitrile], for which the IC50 in assay [1] (setting [3]) is less than 20 nM; in assay [2] it was less than 5 nM.

For `N#C[C@@H]1CN(c2cccc(Cl)c2)C(=O)N1c1cncc2ccccc12` (single isomer, unassigned) [Compound 2b], the values for the IC50 in assay [1] (setting [3]) and in assay [2] were greater than 1000 nM and 3000 nM, respectively.

For `N#CC1CN(c2cccc(Cl)c2)C(=O)N1c1cncc2ccccc12` (racemic) [Compound 2, 1-(3-chlorophenyl)-3-(isoquinolin-4-yl)-2-oxoimidazolidine-4-carbonitrile], the results for the IC50 in assay [1] (setting [3]) and in assay [2] were less than 20 nM and 5 nM, respectively.

With `N#CC1CN(c2cccc(F)c2)C(=O)N1c1cncc2ccccc12` (racemic) [Compound 7, 1-(3-fluorophenyl)-3-(isoquinolin-4-yl)-2-oxoimidazolidine-4-carbonitrile], the IC50 is less than 20 nM in assay [1] (setting [3]) and 6 nM in assay [2].

As for `N#CC1CN(c2ccc(C(F)(F)F)cn2)C(=O)N1c1cncc2ccccc12` (racemic) [Compound 3, 3-(isoquinolin-4-yl)-2-oxo-1-(5-(trifluoromethyl)pyridin-2-yl)imidazolidine-4-carbonitrile], the IC50 in assay [1] (setting [3]) is less than 20 nM; in assay [2], 7 nM.

Regarding `COc1cc(Cl)cnc1N1C[C@H](C#N)N(c2cncc3ccccc23)C1=O` (single isomer, unassigned) [Compound 58a], the IC50 in assay [1] (setting [3]) lay in the range of 20 to 200 nM.

For `N#CC1CN(C2CC(F)(F)C2)C(=O)N1c1cncc2ccccc12` (racemic) [Compound 27, 1-(3,3-difluorocyclobutyl)-3-(isoquinolin-4-yl)-2-oxoimidazolidine-4-carbonitrile], in assay [1] (setting [3]), the IC50 was 20 to 200 nM.

Take `CS(=O)(=O)c1ccc2cncc(N3C(=O)N(c4ccc(F)c(F)c4)C[C@H]3C#N)c2c1` (single isomer, unassigned) [Compound 85b]: in assay [1] (setting [3]), the 50% inhibitory concentration (IC50) was greater than 1000 nM.

Consider `N#CC1CN(C2CCC(F)CC2)C(=O)N1c1cncc2ccccc12` (single isomer, unassigned) [Compound 121d], for which, in assay [1] (setting [3]), the IC50 was greater than 1000 nM.

Take `N#C[C@H]1CN(c2ncc(C(F)(F)F)[nH]2)C(=O)N1c1cncc2ccccc12` (single isomer, unassigned) [Compound 68a]: in assay [1] (setting [3]), the IC50 fell in the range of 20 to 200 nM.

For the compound `N#C[C@@H]1CN([C@H]2CC[C@H](C(F)(F)F)CC2)C(=O)N1c1cncc2ccccc12` [Compound 128b, (S)-3-(isoquinolin-4-yl)-2-oxo-1-((1 r,4R)-4-(trifluoromethyl)cyclohexyl)imidazolidine-4-carbonitrile], in assay [1] (setting [3]), the concentration for half-maximal inhibition (IC50) was greater than 1000 nM.

Turning to `N#C[C@@H]1CN(c2ccc(C(F)(F)F)cn2)C(=O)N1c1cncc2ccccc12` (single isomer, unassigned) [Compound 97b], the IC50 in assay [1] (setting [3]) is greater than 1000 nM.

As to `N#C[C@H]1CN(c2cnc(C(F)(F)F)cn2)C(=O)N1c1cncc2ccccc12` (single isomer, unassigned) [Compound 32a], in assay [1] (setting [3]), the half-inhibitory concentration (IC50) was less than 20 nM.

The compound `N#CC1CN(C2CCC(F)CC2)C(=O)N1c1cncc2ccccc12` (single isomer, unassigned) [Compound 121b] showed an IC50 in assay [1] (Rapid-Fire Assay IC50, Table 1B) of less than 20 nM.

Regarding `N#Cc1cc(C(F)(F)F)ncc1N1C[C@H](C#N)N(c2cncc3ccccc23)C1=O` (single isomer, unassigned) [Compound 18a], the IC50 in assay [1] (setting [3]) is less than 20 nM.

As to `N#C[C@@H]1CN(c2cc(C(F)(F)F)cnn2)C(=O)N1c1cncc2ccccc12` (single isomer, unassigned) [Compound 30b], the IC50 in assay [1] (setting [3]) was greater than 1000 nM.

For `Cc1ccc(Cl)cc1N1C[C@H](C#N)N(c2cncc3ccccc23)C1=O` (single isomer, unassigned) [Compound 114a], the IC50 in assay [1] (setting [3]) was less than 20 nM.

Regarding `N#Cc1ccc2cncc(N3C(=O)N(c4cccc(Cl)c4)C[C@H]3C#N)c2c1` (single isomer, unassigned) [Compound 39b], the IC50 in assay [1] (setting [3]) was greater than 1000 nM.

Consider `N#CC1CN(c2ccc(F)cc2F)C(=O)N1c1cncc2ccccc12` (racemic) [Compound 66, 1-(2,4-difluorophenyl)-3-(isoquinolin-4-yl)-2-oxoimidazolidine-4-carbonitrile], for which the half-inhibitory concentration (IC50) in assay [1] (setting [3]) is 20 to 200 nM.

Turning to `CN1CC(N2CC(C#N)N(c3cncc4ccccc34)C2=O)C1` (centres unmarked) [Compound 132, 3-(isoquinolin-4-yl)-1-(1-methylazetidin-3-yl)-2-oxoimidazolidine-4-carbonitrile], in assay [1] (setting [3]), the IC50 is greater than 1000 nM.

In the case of `N#C[C@@H]1CN(c2ccc(Cl)cn2)C(=O)N1c1cncc2ccccc12` (single isomer, unassigned) [Compound 41b], the IC50 in assay [1] (setting [3]) was 200 to 1000 nM.

For the compound `N#Cc1ccc(C(F)(F)F)cc1N1C[C@@H](C#N)N(c2cncc3ccccc23)C1=O` (single isomer, unassigned) [Compound 90b], the IC50 in assay [1] (setting [3]) was greater than 1000 nM.

In the case of `N#C[C@@H]1CN(c2ccc(C(F)F)cc2)C(=O)N1c1cncc2ccccc12` (single isomer, unassigned) [Compound 108b], the 50% inhibitory concentration (IC50) in assay [1] (setting [3]) was greater than 1000 nM.

`COc1cc(Cl)cnc1N1C[C@@H](C#N)N(c2cncc3ccccc23)C1=O` (single isomer, unassigned) [Compound 58b]: the half-inhibitory concentration (IC50) in assay [1] (setting [3]) is greater than 1000 nM.

Regarding `N#C[C@H]1CN([C@H]2C[C@H](C(F)(F)F)C2)C(=O)N1c1cncc2ccccc12` [Compound 45a, (R)-3-(isoquinolin-4-yl)-2-oxo-1-((1 r,3R)-3-(trifluoromethyl)cyclobutyl)imidazolidine-4-carbonitrile], in assay [1] (setting [3]), the 50% inhibitory concentration (IC50) is less than 20 nM.

For `N#C[C@@H]1CN(c2ccc(OC(F)F)cc2F)C(=O)N1c1cncc2ccccc12` (single isomer, unassigned) [Compound 83b], in assay [1] (setting [3]), the IC50 was greater than 1000 nM.

With `N#C[C@@H]1CN(c2cnc(C(F)(F)F)nc2)C(=O)N1c1cncc2ccccc12` (single isomer, unassigned) [Compound 93b], the IC50 in assay [1] (setting [3]) was greater than 1000 nM.

As to `Cc1ncc(N2C[C@@H](C#N)N(c3cncc4ccccc34)C2=O)cn1` (single isomer, unassigned) [Compound 79b], the IC50 in assay [1] (setting [3]) is greater than 1000 nM.

Take `N#C[C@@H]1CN([C@H]2C[C@H](C3CC3)C2)C(=O)N1c1cncc2ccccc12` [Compound 124c, (S)-1-((1r,3S)-3-cyclopropylcyclobutyl)-3-(isoquinolin-4-yl)-2-oxoimidazolidine-4-carbonitrile]: the IC50 in assay [1] (setting [3]) is greater than 1000 nM.

As to `N#Cc1ccc(N2C[C@@H](C#N)N(c3cncc4ccccc34)C2=O)cc1` (single isomer, unassigned) [Compound 50b], the IC50 in assay [1] (setting [3]) was greater than 1000 nM.

For `Cn1c(C(F)(F)F)ccc(N2C[C@@H](C#N)N(c3cncc4ccccc34)C2=O)c1=O` (single isomer, unassigned) [Compound 96b], the concentration for half-maximal inhibition (IC50) in assay [1] (setting [3]) was greater than 1000 nM.

`N#C[C@@H]1CN(c2cccc(Cl)c2)C(=O)N1c1cncc2ccc(C(=O)O)cc12` (single isomer, unassigned) [Compound 33b]: the concentration for half-maximal inhibition (IC50) in assay [1] (setting [3]) is greater than 1000 nM.

Regarding `N#C[C@@H]1CN([C@@H]2CCN(CCO)C2)C(=O)N1c1cncc2ccccc12` (single isomer, unassigned) [Compound 46b], the IC50 in assay [1] (setting [3]) was greater than 1000 nM.

Turning to `COc1cc(C(F)(F)F)ccc1N1C[C@@H](C#N)N(c2cncc3ccccc23)C1=O` (single isomer, unassigned) [Compound 12b], the half-inhibitory concentration (IC50) in assay [1] (setting [3]) is greater than 1000 nM.

In the case of `Cn1cc(N2CC(C#N)N(c3cncc4ccccc34)C2=O)cn1` (racemic) [Compound 65, 3-(isoquinolin-4-yl)-1-(1-methyl-1H-pyrazol-4-yl)-2-oxoimidazolidine-4-carbonitrile], the concentration for half-maximal inhibition (IC50) in assay [1] (setting [3]) was in the range of 200 to 1000 nM.

Turning to `N#C[C@@H]1CN(c2ncc(Cl)cn2)C(=O)N1c1cncc2ccccc12` (single isomer, unassigned) [Compound 16b], the IC50 in assay [1] (setting [3]) lay in the range of 200 to 1000 nM.

As to `COc1cnc(C(F)(F)F)cc1N1C[C@H](C#N)N(c2cncc3ccccc23)C1=O` (single isomer, unassigned) [Compound 14a], in assay [1] (setting [3]), the 50% inhibitory concentration (IC50) was less than 20 nM.

Regarding `N#C[C@H]1CN(c2cnc(C(F)(F)F)nc2)C(=O)N1c1cncc2ccccc12` (single isomer, unassigned) [Compound 93a], in assay [1] (setting [3]), the IC50 was less than 20 nM.

As for `COc1ccc(C(F)(F)F)cc1N1C[C@@H](C#N)N(c2cncc3ccccc23)C1=O` (single isomer, unassigned) [Compound 17b], in assay [1] (setting [3]), the IC50 is greater than 1000 nM.

In the case of `N#C[C@H]1CN(C2CCC(F)(F)CC2)C(=O)N1c1cncc2ccccc12` (single isomer, unassigned) [Compound 138a], the IC50 in assay [1] (setting [3]) is less than 20 nM.

In the case of `N#C[C@H]1CN(C2CN(CC(F)(F)F)C2)C(=O)N1c1cncc2ccccc12` (single isomer, unassigned) [Compound 133a], in assay [1] (setting [3]), the concentration for half-maximal inhibition (IC50) was less than 20 nM.
